From patent publication US20260256789A1, “METHODS FOR TREATMENT OF CANCER” (Frontier Medicines Corporation, priority 2022, published 2026) come the findings set out here.

In general, IC50 refers to the point on the concentration scale where inhibition reaches its midpoint. A low value points to inhibition by little substance.

In this experiment the target is T1, KRAS G12C (GMPPNP-loaded) and cRAF Ras-binding domain (Homo sapiens, UniProt P01116, C118S/C51S/C80L/G12C).
T1 construct: truncated version comprising amino acids 1-169
T1 sequence (P01116 1-169 isoform P01116-2 G12C/C51S/C80L/C118S): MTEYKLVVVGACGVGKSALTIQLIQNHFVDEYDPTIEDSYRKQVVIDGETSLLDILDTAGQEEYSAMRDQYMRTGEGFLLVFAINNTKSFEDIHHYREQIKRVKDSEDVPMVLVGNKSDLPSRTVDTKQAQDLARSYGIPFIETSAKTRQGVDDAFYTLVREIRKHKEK
The experiment is described as follows: Inhibition of KRAS G12C and cRAF binding (AlphaScreen). The conditions noted are these: KRAS G12C preloaded with GTP analogue GMPPNP, 2 hours preincubation. An excerpt:
The ability of compounds of Formula (A), Formula (B) and Formula (C), and pharmaceutically acceptable salts and/or isotopologues thereof, to inhibit activity of the GTP-bound form of KRAS G12C can be tested using methods such as the in vitro assay described in Example 179 below. Example 179 describes determining, for various compounds, the half-maximal inhibition (IC50) of KRAS G12C loaded with GTP analogue GMPPNP from binding to cRaf, as the Ras-binding domain (RBD). Example 180 describes determining, for various compounds, the half-maximal inhibition (IC50) of KRAS G12C loaded with GTP analogue GMPPNP from binding to PI3Kα, as the Ras-binding domain (RBD). Example 181 describes testing compounds for the ability to inhibit cell viability in MCF10A G12C/A59G mutant, which abrogates GTPase activity, thus preventing hydrolysis of GTP to GDP.
The AlphaScreen technology was used to determine IC50s for compound inhibition of KRAS G12C (present as the Cys-light (C51S, C80L and C118S), truncated version comprising amino acids 1-169) and cRAF interaction. Compounds were diluted in 100% DMSO and each compound concentration was spotted at 200 nl/well onto low volume, white 384 well plates. The KRAS G12C contained a biotin-AviTag and the cRaf, as Ras-binding domain (amino acids 50-131, RBD), was GST-tagged. KRAS G12C was preloaded with the GTP analogue Guanosine 5′-[β,γ-imido]triphosphate (GMPPNP). The KRAS G12C was diluted in 25 mM Hepes, pH 7.4, 150 mM NaCl, 5 mM MgCl2, 0.01% TritonX-100 and 10 μM GMPPNP and added at 10 ul/well to compound-spotted plates resulting in a DMSO concentration of 2%. Plates were incubated for 2 hours. A mixture of RBD and the AlphaScreen streptavidin donor and glutathione acceptor beads diluted in 25 mM Hepes, pH 7.4, 150 mM NaCl, 5 mM MgCl2, 0.01% TritonX-100 and 2% DMSO was then added at 10 ul/well and incubated for 60-90 minutes before the samples were read for emission at 570 nm after excitation of the donor beads at 680 nm. All incubations were performed at room temperature. The final top compound concentration was 50 μM with 1:3 titrations for 10-point dose response curves. Final assay conditions were 0.5 nM KRAS G12C, 0.75 nM RBD and 5 μg/ml each of AlphaScreen donor and acceptor beads. IC50s were determined using nonlinear regression fit of [inhibitor] vs. response (4 parameters). […]
In general terms: In Alpha technology, singlet oxygen from a donor bead excites a nearby acceptor bead.
Regarding `Cc1noc(/C=C/C(=O)N2CC[C@@H](N(C)c3nc(OC[C@@]45CCCN4C[C@H](F)C5)nc4c(F)c(-c5nc(N)cc(C)c5C(F)(F)F)ncc34)C2)n1` [Example 55, (E)-1-((R)-3-((7-(6-amino-4-methyl-3-(trifluoromethyl)pyridin-2-yl)-8-fluoro-2-(((2R,7aS)-2-fluorotetrahydro-1H-pyrrolizin-7a(5H)-yl)methoxy)pyrido[4,3-d]pyrimidin-4-yl)(methyl)amino)pyrrolidin-1-yl)-3-(3-methyl-1,2,4-oxadiazol-5-yl)prop-2-en-1-one], the IC50 was < 10 nM.
Consider `Cc1cc(N)nc(-c2ncc3c(N(C)[C@@H]4CCN(C(=O)/C=C/c5nc(C(C)(F)F)no5)C4)nc(OC[C@@]45CCCN4C[C@H](F)C5)nc3c2F)c1C(F)(F)F` [Example 56, (E)-1-((R)-3-((7-(6-amino-4-methyl-3-(trifluoromethyl)pyridin-2-yl)-8-fluoro-2-(((2R,7aS)-2-fluorotetrahydro-1H-pyrrolizin-7a(5H)-yl)methoxy)pyrido[4,3-d]pyrimidin-4-yl)(methyl)amino)pyrrolidin-1-yl)-3-(3-(1,1-difluoroethyl)-1,2,4-oxadiazol-5-yl)prop-2-en-1-one], for which the IC50 is < 10 nM.
`C=CC(=O)N1CC[C@@H](N(C)c2nc(OC[C@@]34CCCN3C[C@H](F)C4)nc3c2C[C@@H](C)[C@H](c2nc(N)cc(C)c2C(F)(F)F)C3)C1` [Example 59, 1-((R)-3-(((6R,7R)-7-(6-amino-4-methyl-3-(trifluoromethyl)pyridin-2-yl)-2-(((2R,7aS)-2-fluorohexahydro-1H-pyrrolizin-7a-yl)methoxy)-6-methyl-5,6,7,8-tetrahydroquinazolin-4-yl)(methyl)amino)pyrrolidin-1-yl)prop-2-en-1-one] returned an IC50 of 100 to 500 nM.
Turning to `CC(C)c1noc(/C=C/C(=O)N2CC[C@@H](N(C)c3nc(OC[C@@]45CCCN4C[C@H](F)C5)nc4c(F)c(-c5nc(N)cc6cccc(Cl)c56)ncc34)C2)n1` [Example 60, (E)-1-((R)-3-((7-(3-amino-8-chloroisoquinolin-1-yl)-8-fluoro-2-(((2R,7aS)-2-fluorohexahydro-1H-pyrrolizin-7a-yl)methoxy)pyrido[4,3-d]pyrimidin-4-yl)(methyl)amino)pyrrolidin-1-yl)-3-(3-isopropyl-1,2,4-oxadiazol-5-yl)prop-2-en-1-one], the half-inhibitory concentration (IC50) was < 10 nM.
Regarding `CN(C)C/C=C/C(=O)N1CC[C@@H](N(C)c2nc(OC[C@@]34CCCN3C[C@H](F)C4)nc3c(F)c(-c4nc(N)cc5cccc(Cl)c45)ncc23)C1` [Example 61, (E)-1-((R)-3-((7-(3-amino-8-chloroisoquinolin-1-yl)-8-fluoro-2-(((2R,7aS)-2-fluorohexahydro-1H-pyrrolizin-7a-yl)methoxy)pyrido[4,3-d]pyrimidin-4-yl)(methyl)amino)pyrrolidin-1-yl)-4-(dimethylamino)but-2-en-1-one], the concentration for half-maximal inhibition (IC50) lay in the range of 10 to 100 nM.
On to `Cc1cc(N)nc(-c2ncc3c(N(C)[C@@H]4CCN(C(=O)/C=C/CN(C)C)C4)nc(OC[C@@]45CCCN4C[C@H](F)C5)nc3c2F)c1C(F)(F)F` [Example 62, (E)-1-((R)-3-((7-(6-amino-4-methyl-3-(trifluoromethyl)pyridin-2-yl)-8-fluoro-2-(((2R,7aS)-2-fluorohexahydro-1H-pyrrolizin-7a-yl)methoxy)pyrido[4,3-d]pyrimidin-4-yl)(methyl)amino)pyrrolidin-1-yl)-4-(dimethylamino)but-2-en-1-one], for which the IC50 fell in the range of 10 to 100 nM.
Then `Cc1cc(N)nc(-c2ncc3c(N(C)[C@@H]4CCN(C(=O)/C=C/c5nc(C6CC6)no5)C4)nc(OC[C@@]45CCCN4C[C@H](F)C5)nc3c2F)c1C(F)(F)F` [Example 63, (E)-1-((R)-3-((7-(6-amino-4-methyl-3-(trifluoromethyl)pyridin-2-yl)-8-fluoro-2-(((2R,7aS)-2-fluorotetrahydro-1H-pyrrolizin-7a(5H)-yl)methoxy)pyrido[4,3-d]pyrimidin-4-yl)(methyl)amino)pyrrolidin-1-yl)-3-(3-cyclopropyl-1,2,4-oxadiazol-5-yl)prop-2-en-1-one], with < 10 nM; and `C=CC(=O)N1CC(CN(C)c2nc(OC[C@@]34CCCN3C[C@H](F)C4)nc3c(F)c(-c4nc(N)cc(C)c4C(F)(F)F)ncc23)C1` [Example 64, 1-(3-(((7-(6-amino-4-methyl-3-(trifluoromethyl)pyridin-2-yl)-8-fluoro-2-(((2R,7aS)-2-fluorotetrahydro-1H-pyrrolizin-7a(5H)-yl)methoxy)pyrido[4,3-d]pyrimidin-4-yl)(methyl)amino)methyl)azetidin-1-yl)prop-2-en-1-one], with 10 to 100 nM.
For the molecule `Cc1noc(/C=C/C(=O)N2CC[C@@H](N(C)c3nc(OC[C@@]45CCCN4C[C@H](F)C5)nc4c3CC(C)C(c3nc(N)cc(C)c3C(F)(F)F)C4)C2)n1` (stereo partly drawn) [Example 65, (E)-1-((3R)-3-((7-(6-amino-4-methyl-3-(trifluoromethyl)pyridin-2-yl)-2-(((2R,7aS)-2-fluorohexahydro-1H-pyrrolizin-7a-yl)methoxy)-6-methyl-5,6,7,8-tetrahydroquinazolin-4-yl)(methyl)amino)pyrrolidin-1-yl)-3-(3-methyl-1,2,4-oxadiazol-5-yl)prop-2-en-1-one], the IC50 was < 10 nM.
Consider `CN(c1nc(OCC23CCCN2CCC3)nc2c(F)c(-c3nc(N)cc4cccc(Cl)c34)ncc12)[C@@H]1CCN(C#N)C1` [Example 66, (R)-3-((7-(3-amino-8-chloroisoquinolin-1-yl)-8-fluoro-2-((hexahydro-1H-pyrrolizin-7a-yl)methoxy)pyrido[4,3-d]pyrimidin-4-yl)(methyl)amino)pyrrolidine-1-carbonitrile], for which the IC50 was in the range of 10 to 100 nM.
For the molecule `C=CC(=O)N1CC(CN(C)c2nc(OC[C@@]34CCCN3C[C@H](F)C4)nc3c2CC(C)C(c2nc(N)cc(C)c2C(F)(F)F)C3)C1` (stereo partly drawn) [Example 67, 1-(3-(((7-(6-amino-4-methyl-3-(trifluoromethyl)pyridin-2-yl)-2-(((2R,7aS)-2-fluorohexahydro-1H-pyrrolizin-7a-yl)methoxy)-6-methyl-5,6,7,8-tetrahydroquinazolin-4-yl)(methyl)amino)methyl)azetidin-1-yl)prop-2-en-1-one], the IC50 was ≥ 500 nM.
`C=CC(=O)N1CC[C@@H](N(C)c2nc(OC[C@@]34CCCN3C[C@H](F)C4)nc3c2CC(C)C(c2nc(N)cc(C)c2C(F)(F)F)C3)C1` (stereo partly drawn) [Example 68, 1-((3R)-3-((7-(6-amino-4-methyl-3-(trifluoromethyl)pyridin-2-yl)-2-(((2R,7aS)-2-fluorohexahydro-1H-pyrrolizin-7a-yl)methoxy)-6-methyl-5,6,7,8-tetrahydroquinazolin-4-yl)(methyl)amino)pyrrolidin-1-yl)prop-2-en-1-one] had an IC50 of 100 to 500 nM.
For `C=CC(=O)N1CC[C@@H](N(C)c2nc(OCC34CCCN3CCC4)nc3c(F)c(-c4nc(N)cc5cccc(Cl)c45)ncc23)C1` [Example 69, (R)-1-(3-((7-(3-amino-8-chloroisoquinolin-1-yl)-8-fluoro-2-((hexahydro-1H-pyrrolizin-7a-yl)methoxy)pyrido[4,3-d]pyrimidin-4-yl)(methyl)amino)pyrrolidin-1-yl)prop-2-en-1-one] the value was 100 to 500 nM.
In the case of `CN(c1nc(OCC23CCCN2CCC3)nc2c(F)c(-c3nc(N)cc4cccc(F)c34)ncc12)[C@@H]1CCN(C#N)C1` [Example 70, (R)-3-((7-(3-amino-8-fluoroisoquinolin-1-yl)-8-fluoro-2-((hexahydro-1H-pyrrolizin-7a-yl)methoxy)pyrido[4,3-d]pyrimidin-4-yl)(methyl)amino)pyrrolidine-1-carbonitrile], the 50% inhibitory concentration (IC50) was in the range of 100 to 500 nM.
Turning to `Cc1cc(N)nc(-c2ncc3c(N(C)[C@@H]4CCN(C(=O)/C=C/c5nc(C(C)C)no5)C4)nc(OC[C@@]45CCCN4C[C@H](F)C5)nc3c2F)c1C(F)(F)F` [Example 71, (E)-1-((R)-3-((7-(6-amino-4-methyl-3-(trifluoromethyl)pyridin-2-yl)-8-fluoro-2-(((2R,7aS)-2-fluorotetrahydro-1H-pyrrolizin-7a(5H)-yl)methoxy)pyrido[4,3-d]pyrimidin-4-yl)(methyl)amino)pyrrolidin-1-yl)-3-(3-isopropyl-1,2,4-oxadiazol-5-yl)prop-2-en-1-one], the IC50 was < 10 nM.
